Results taken from patent US20230287044A1, “NOVEL ANTIBACTERIAL PEPTIDE AND USE THEREOF” (priority 2020, published 2023).
In brackets after ≈: the same amount, converted by molar mass. Like-named read-outs stand apart in the source and are kept apart here. Square brackets hold non-standard residues; d marks the D form. Peptide text beside a SMILES is read from it.

Key:
[1] = tested on: VRE (E. faecalis) ATCC 51575; format: cell-based, Enterococcus faecalis
Procedure, shortened: (§1)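 Mid-log cultures grown in CAMHB and diluted to 1× 10^6 cfu/ml in PBS were mixed with an equal volume of peptide in CAMHB (80 µM to 0.63 µM twofold dilutions). MIC taken as the mean of three independent experiments.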

[2] = tested on: MRPA (P. aeruginosa) CCARM 2180; format: cell-based, Pseudomonas aeruginosa; conditions: CCARM 2180, 18 h
Procedure, shortened: as §1

[3] = tested on: MRAB (A. baumannii) ATCC BAA 1605; format: cell-based, Acinetobacter baumannii
Procedure, shortened: as §1

[4] = tested on: MRSA (S. aureus) KCCM 40510; format: cell-based, Staphylococcus aureus; conditions: KCCM 40510, 18 h
Procedure, shortened: as §1

[5] = Solubility of antibacterial peptides in solution; format: physicochemical
[6] = tested on: 30 species of Acinetobacter baumannii (A. baumannii); format: cell-based; conditions: for MIC50 / MIC90: against 30 species of Acinetobacter baumannii
Procedure: In addition, the results obtained by measuring the minimum inhibitory concentrations of KSH29, KSH42 and KSH43 against 30 species of Acinetobacter baumannii (A. baumannii) are shown in Table 4 below.
The minimum inhibitory concentrations (MIC) against the 30 species of Acinetobacter baumannii were measured in the following manner.
The strain 1605 was purchased from ATCC (American Type Culture Collection, USA). In addition, the strain 40203 was purchased from the Korean Culture Center of Microorganisms.
The COL^R refers to resistance to colistin, the TGC^R refers to resistance to tigecycline, and the TGC^I refers to tigecycline intermediate strains.

[7] = A. baumannii strain 102 (TGC^I)
[8] = A. baumannii strain 141 (TGC^R)
[9] = A. baumannii strain 147 (TGC^R)
[10] = A. baumannii strain 152 (TGC^R)
[11] = A. baumannii strain 40203 (Korean Culture Center of Microorganisms)
[12] = CAMHB, 37° C., 18 hours, average of three experiments

CC(C)[C@@H](NC(=O)[C@H](N)Cc1c[nH]c2ccccc12)C(=O)N[C@@H](C(=O)N[C@H](Cc1c[nH]cn1)C(=O)N[C@@H](C(=O)N[C@@H](C(=O)N[C@H](Cc1c[nH]c2ccccc12)C(=O)N[C@H](CCCNC(=N)N)C(=O)N[C@H](CCCNC(=N)N)C(=O)N[C@H](CCCNC(=N)N)C(N)=O)C(C)C)C(C)C)C(C)C [KSH45, wvvhvvwrrr] (H-[dW][dV][dV][dH][dV][dV][dW][dR][dR][dR]-NH2; N-terminus assumed)
MIC VRE (E. faecalis) ATCC 51575 ([1]; ATCC 51575, 18 h): 1.25 µM (≈ 1.74 µg/mL)
MIC MRPA (P. aeruginosa) CCARM 2180 [2]: 2.5 µM (≈ 3.48 µg/mL)
MIC MRAB (A. baumannii) ATCC BAA 1605 ([3]; ATCC BAA 1605, 18 h): 1.25 µM (≈ 1.74 µg/mL)
MIC MRSA (S. aureus) KCCM 40510 [4]: 1.25 µM (≈ 1.74 µg/mL)
solubility at 12 h ([5]; aqueous buffer): > 200 µM
solubility at 12 h ([5]; plasma or biological fluid): 50 µM (≈ 69.6 µg/mL)
solubility at 12 h ([5]; water): > 2000 µM

CN[C@H](CC(C)C)C(=O)N[C@H]1C(=O)N[C@@H](CC(N)=O)C(=O)N[C@H]2C(=O)N[C@H]3C(=O)N[C@H](C(=O)N[C@H](C(=O)O)c4cc(O)cc(O)c4-c4cc3ccc4O)[C@H](O)c3ccc(c(Cl)c3)Oc3cc2cc(c3O[C@@H]2O[C@H](CO)[C@@H](O)[C@H](O)[C@H]2O[C@H]2C[C@](C)(N)[C@H](O)[C@H](C)O2)Oc2ccc(cc2Cl)[C@H]1O [Vancomycin, reference compound]
solubility at 12 h ([5]; aqueous buffer, PBS, peptide 25 to 200 µM, 12 hours at room temperature, read-out: Solubility in solution PBS): > 200 µM
solubility at 12 h ([5]; plasma or biological fluid, CAMHB, peptide 25 to 200 µM, 12 hours at room temperature, read-out: Solubility in solution CAMHB): > 200 µM
solubility at 12 h ([5]; water, H2O, observed for 12 hours at room temperature, read-out: Solubility in solution H2O): > 2000 µM

CC(C)[C@@H](NC(=O)[C@H](N)Cc1c[nH]c2ccccc12)C(=O)N[C@@H](C(=O)N[C@H](Cc1c[nH]c2ccccc12)C(=O)N[C@@H](C(=O)N[C@@H](C(=O)N[C@H](Cc1c[nH]c2ccccc12)C(=O)N[C@H](CCCNC(=N)N)C(=O)N[C@H](CCCNC(=N)N)C(=O)N[C@H](CCCNC(=N)N)C(N)=O)C(C)C)C(C)C)C(C)C [KSH42, wvvwvvwrrr] (H-[dW][dV][dV][dW][dV][dV][dW][dR][dR][dR]-NH2; N-terminus assumed)
solubility at 12 h ([5]; aqueous buffer): ≥ 100 µM
solubility at 12 h ([5]; plasma or biological fluid): 100 µM (≈ 144 µg/mL)
solubility at 12 h ([5]; water): > 2000 µM
MIC50 [6]: 1.25 µM (≈ 1.8 µg/mL)
MIC90 [6]: 1.25 µM (≈ 1.8 µg/mL)

CC[C@@H](C)[C@@H](NC(=O)[C@@H](Cc1c[nH]c2ccccc12)NC(=O)[C@H](NC(=O)[C@@H](CC(C)C)NC(=O)[C@H](N)Cc1c[nH]c2ccccc12)C(C)C)C(=O)N[C@H](Cc1c[nH]c2ccccc12)C(=O)N[C@H](CCCNC(=N)N)C(=O)N[C@H](CCCNC(=N)N)C(=O)N[C@H](CCCNC(=N)N)C(N)=O [KSH29, wlvwiwrrr] (H-[dW][dL][dV][dW][dI][dW][dR][dR][dR]-NH2; N-terminus assumed)
solubility at 12 h ([5]; aqueous buffer): ≥ 100 µM
solubility at 12 h ([5]; plasma or biological fluid): 50 µM (≈ 68.5 µg/mL)
solubility at 12 h ([5]; water): > 2000 µM
MIC ([6]; A. baumannii strain 1): 1.25 µM (≈ 1.71 µg/mL)
MIC ([6]; A. baumannii strain 6 (TGC^I)): 1.25 µM (≈ 1.71 µg/mL)
MIC ([6]; A. baumannii strain 10): 1.25 µM (≈ 1.71 µg/mL)
MIC ([6]; A. baumannii strain 14): 1.25 µM (≈ 1.71 µg/mL)
MIC ([6]; A. baumannii strain 15): 1.25 µM (≈ 1.71 µg/mL)
MIC ([6]; A. baumannii strain 16): 1.25 µM (≈ 1.71 µg/mL)
MIC ([6]; A. baumannii strain 19): 1.25 µM (≈ 1.71 µg/mL)
MIC ([6]; A. baumannii strain 22 (TGC^I)): 1.25 µM (≈ 1.71 µg/mL)
MIC ([6]; A. baumannii strain 39): 1.25 µM (≈ 1.71 µg/mL)
MIC ([6]; A. baumannii strain 44): 1.25 µM (≈ 1.71 µg/mL)
MIC ([6]; A. baumannii strain 66): 1.25 µM (≈ 1.71 µg/mL)
MIC ([6]; A. baumannii strain 68): 1.25 µM (≈ 1.71 µg/mL)
MIC ([6]; A. baumannii strain 69): 1.25 µM (≈ 1.71 µg/mL)
MIC ([6]; A. baumannii strain 71): 1.25 µM (≈ 1.71 µg/mL)
MIC ([6]; A. baumannii strain 76): 1.25 µM (≈ 1.71 µg/mL)
MIC ([6]; A. baumannii strain 82): 1.25 µM (≈ 1.71 µg/mL)
MIC ([6]; A. baumannii strain 89): 1.25 µM (≈ 1.71 µg/mL)
MIC [6, 7]: 1.25 µM (≈ 1.71 µg/mL)
MIC ([6]; A. baumannii strain 127): 1.25 µM (≈ 1.71 µg/mL)
MIC [6, 8]: 1.25 µM (≈ 1.71 µg/mL)
MIC ([6]; A. baumannii strain 144): 1.25 µM (≈ 1.71 µg/mL)
MIC [6, 9]: 1.25 µM (≈ 1.71 µg/mL)
MIC [6, 10]: 1.25 µM (≈ 1.71 µg/mL)
MIC ([6]; A. baumannii strain 10087): 1.25 µM (≈ 1.71 µg/mL)
MIC ([6]; A. baumannii strain 19606): 1.25 µM (≈ 1.71 µg/mL)
MIC [6, 11]: 1.25 µM (≈ 1.71 µg/mL)
MIC50 [6]: 1.25 µM (≈ 1.71 µg/mL)
MIC90 [6]: 1.25 µM (≈ 1.71 µg/mL)

CC[C@@H](C)[C@@H](NC(=O)[C@@H](Cc1c[nH]c2ccccc12)NC(=O)[C@H](NC(=O)[C@@H](CC(C)C)NC(=O)[C@H](N)Cc1c[nH]c2ccccc12)C(C)C)C(=O)N[C@H](Cc1c[nH]c2ccccc12)C(=O)N[C@H](CCCNC(=N)N)C(=O)N[C@H](CCCNC(=N)N)C(=O)N[C@H](CCC(N)=O)C(=O)N[C@H](CCCNC(=N)N)C(N)=O [KSH31, wlvwiwrrqr] (H-[dW][dL][dV][dW][dI][dW][dR][dR][dQ][dR]-NH2; N-terminus assumed)
MIC VRE (E. faecalis) ATCC 51575 [1, 12]: 1.25 µM (≈ 1.87 µg/mL)
MIC MRPA (P. aeruginosa) CCARM 2180 [2]: >5 µM
MIC MRAB (A. baumannii) ATCC BAA 1605 [3, 12]: 1.25 µM (≈ 1.87 µg/mL)
solubility at 12 h ([5]; aqueous buffer): ≥ 100 µM
solubility at 12 h ([5]; plasma or biological fluid): 25 µM (≈ 37.4 µg/mL)
solubility at 12 h ([5]; water): > 2000 µM

CC[C@@H](C)[C@@H](NC(=O)[C@@H](Cc1c[nH]c2ccccc12)NC(=O)[C@H](NC(=O)[C@@H](CC(C)C)NC(=O)[C@H](N)Cc1c[nH]c2ccccc12)C(C)C)C(=O)N[C@H](Cc1c[nH]c2ccccc12)C(=O)N[C@H](CCC(N)=O)C(=O)N[C@H](CCCNC(=N)N)C(=O)N[C@H](CCCNC(=N)N)C(=O)N[C@H](CCCNC(=N)N)C(N)=O [KSH30, wlvwiwqrrr] (H-[dW][dL][dV][dW][dI][dW][dQ][dR][dR][dR]-NH2; N-terminus assumed)
MIC MRPA (P. aeruginosa) CCARM 2180 [2]: >5 µM
MIC MRAB (A. baumannii) ATCC BAA 1605 [3, 12]: 1.25 µM (≈ 1.87 µg/mL)
solubility at 12 h ([5]; aqueous buffer): ≥ 25 µM
solubility at 12 h ([5]; plasma or biological fluid): 50 µM (≈ 74.9 µg/mL)
solubility at 12 h ([5]; water): > 2000 µM

Colistin [reference compound]
solubility at 12 h ([5]; read-out: Solubility in solution CAMHB): >200 µM
solubility at 12 h ([5]; read-out: Solubility in solution H2O): >2000 µM
solubility at 12 h ([5]; read-out: Solubility in solution PBS): >200 µM
MIC ([6]; A. baumannii strain 1): 0.63 µM
MIC ([6]; A. baumannii strain 3 (COL^R)): >40 µM
MIC ([6]; A. baumannii strain 6 (TGC^I)): 2.5 µM
MIC ([6]; A. baumannii strain 10): 2.5 µM
MIC ([6]; A. baumannii strain 14): 1.25 µM
MIC ([6]; A. baumannii strain 15): 0.63 µM
MIC ([6]; A. baumannii strain 16): <0.31 µM
MIC ([6]; A. baumannii strain 19): <0.31 µM
MIC ([6]; A. baumannii strain 22 (TGC^I)): 1.25 µM
MIC ([6]; A. baumannii strain 39): <0.31 µM
MIC ([6]; A. baumannii strain 44): 1.25 µM
MIC ([6]; A. baumannii strain 66): 1.25 µM
MIC ([6]; A. baumannii strain 68): 0.63 µM
MIC ([6]; A. baumannii strain 69): 1.25 µM
MIC ([6]; A. baumannii strain 71): 1.25 µM
MIC ([6]; A. baumannii strain 76): <0.31 µM
MIC ([6]; A. baumannii strain 80): 0.63 µM
MIC ([6]; A. baumannii strain 82): 0.63 µM
MIC ([6]; A. baumannii strain 86): 0.63 µM
MIC ([6]; A. baumannii strain 89): 2.5 µM
MIC [6, 7]: 0.63 µM
MIC ([6]; A. baumannii strain 127): 0.63 µM
MIC [6, 8]: <0.31 µM
MIC ([6]; A. baumannii strain 144): 0.63 µM
MIC [6, 9]: 5 µM
MIC [6, 10]: 1.25 µM
MIC ([6]; A. baumannii strain 1605 (ATCC)): 0.63 µM
MIC ([6]; A. baumannii strain 10087): 1.25 µM
MIC ([6]; A. baumannii strain 19606): 1.25 µM
MIC [6, 11]: 0.63 µM

CC(C)[C@@H](NC(=O)[C@@H](Cc1c[nH]c2ccccc12)NC(=O)[C@@H](CCCNC(=N)N)NC(=O)[C@@H](CCCNC(=N)N)NC(=O)[C@H](N)CCCNC(=N)N)C(=O)N[C@H](Cc1c[nH]c2ccccc12)C(=O)N[C@@H](C(=O)N[C@@H](C(=O)N[C@@H](C(=O)N[C@H](Cc1c[nH]c2ccccc12)C(N)=O)C(C)C)C(C)C)C(C)C [KSH82, rrrwvwvvvw] (H-[dR][dR][dR][dW][dV][dW][dV][dV][dV][dW]-NH2; N-terminus assumed)
MIC VRE (E. faecalis) ATCC 51575 ([1]; ATCC 51575, 18 h): 1.25 µM (≈ 1.8 µg/mL)
MIC MRPA (P. aeruginosa) CCARM 2180 [2]: 10 µM (≈ 14.4 µg/mL)
MIC MRAB (A. baumannii) ATCC BAA 1605 ([3]; ATCC BAA 1605, 18 h): 10 µM (≈ 14.4 µg/mL)
MIC MRSA (S. aureus) KCCM 40510 [4]: 1.25 µM (≈ 1.8 µg/mL)
